Legend:
Assay in all cases: combination Emax (second highest fraction inhibited in the dose matrix, 72 h); higher = more inhibition; extreme values may be limits of the assay
[1] = tested on: NUGC-3 (Gastric Carcinoma)
How it was run: (§1)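 After 24 hours at 37°C and 5% CO2 in 1536-well plates, cells in DMEM/F12 or RPMI plus 10% FBS received two-drug dose matrices for 72 hours. Viability came from CellTiter-Glo 2.0 luminescence and was scaled as inhibition, anchored at 0 by vehicle wells and at 1 by blank wells. Combination Emax is taken as the second-highest inhibition in the matrix, and Bliss excess as the observed combination effect less EA + EB − EA·EB, with EA and EB the single-agent effects.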

[2] = tested on: SCC-15 (Oral Cavity Carcinoma)
How it was run: as §1

[3] = tested on: TE-1 (Esophageal Squamous Cell Carcinoma)
How it was run: as §1

[4] = tested on: LU-65 (Non-Small Cell Lung Carcinoma)
How it was run: as §1

[5] = tested on: SW13 (Other Solid Carcinomas)
How it was run: as §1

[6] = tested on: Hs-766T (Pancreatic Carcinoma)
How it was run: as §1

[7] = tested on: NCI-H1915 (Non-Small Cell Lung Carcinoma)
How it was run: as §1

[8] = tested on: AMO-1 (Plasma Cell Myeloma)
How it was run: as §1

[9] = tested on: C-4-I (Cervical Carcinoma)
How it was run: as §1

[10] = tested on: NEC8 (Other Solid Carcinomas)
How it was run: as §1

[11] = tested on: EoL-1-cell (Acute Myeloid Leukemia)
How it was run: as §1

[12] = tested on: KARPAS-299 (T-Cell Non-Hodgkin's Lymphoma)
How it was run: as §1

[13] = tested on: VA-ES-BJ (Other Solid Carcinomas)
How it was run: as §1

[14] = tested on: HSC-4 (Oral Cavity Carcinoma)
How it was run: as §1

[15] = tested on: KYSE-450 (Esophageal Squamous Cell Carcinoma)
How it was run: as §1

[16] = tested on: UACC-62 (Melanoma)
How it was run: as §1

[17] = tested on: PWR-1E (Non-Cancerous)
How it was run: as §1

[18] = tested on: EW-24 (Ewing's Sarcoma)
How it was run: as §1

[19] = tested on: KMOE-2 (Acute Myeloid Leukemia)
How it was run: as §1

[20] = tested on: NCI-H358 (Lung Adenocarcinoma)
How it was run: as §1

| SMILES | combination Emax [1] | combination Emax [2] | combination Emax [3] | combination Emax [4] | combination Emax [5] | combination Emax [6] | combination Emax [7] | combination Emax [8] | combination Emax [9] | combination Emax [10] | combination Emax [11] | combination Emax [12] | combination Emax [13] | combination Emax [14] | combination Emax [15] | combination Emax [16] | combination Emax [17] | combination Emax [18] | combination Emax [19] | combination Emax [20] |
| --- | --- | --- | --- | --- | --- | --- | --- | --- | --- | --- | --- | --- | --- | --- | --- | --- | --- | --- | --- | --- |
| Cc1c2c(nn1C)CSCc1cc(n(C)n1)CSc1cc(c3ccccc3c1)OCCCc1c(C(=O)O)n(C)c3c-2c(Cl)ccc13 [AZD5991] + Cc1cc2ncnn2cc1Nc1ncc2c(n1)n(C1CCOCC1)c(=O)n2C [AZD7648] (first compound max 1 µM, 7x7, partner max 10 µM) | 0.428 | 0.25 | 0.599 | 0.397 | 0.861 | 0.398 | 0.3 | 1 | 1 | 0.339 | 1 | 1 | 0.221 | 0.171 | 0.268 | 0.859 | 0.247 | 0.258 | 0.74 | 0.331 |
| Cn1cnc2c(F)c(Nc3ccc(Br)cc3Cl)c(C(=O)NOCCO)cc21 [Selumetinib] + C=CCn1c(=O)c2cnc(Nc3ccc(N4CCN(C)CC4)cc3)nc2n1-c1cccc(C(C)(C)O)n1 [AZD1775] (first compound max 10 µM, partner max 1 µM) | 0.639 | 0.3 | 0.638 | 0.908 | 0.361 | 0.487 | 0.846 | 0.917 | 0.929 | 0.628 | 1 | 0.851 | 0.468 | 0.427 | 0.499 | 0.827 | 0.34 | 0.334 | 1 | 0.621 |
| Cc1c2c(nn1C)CSCc1cc(n(C)n1)CSc1cc(c3ccccc3c1)OCCCc1c(C(=O)O)n(C)c3c-2c(Cl)ccc13 [AZD5991] + C[C@@H](Nc1cc(F)cc(F)c1)c1cc(C(=O)N(C)C)cc2c(=O)cc(N3CCOCC3)oc12 [AZD8186] (first compound max 1 µM, 7x7, partner max 3 µM) | 0.209 | 0.322 | 0.589 | 0.449 | 0.947 | 0.45 | 0.184 | 1 | 0.985 | 0.369 | 1 | 0.957 | 0.322 | 0.24 | 0.234 | 0.934 | 0.268 | 0.291 | 0.644 | 0.282 |
| Cc1c2c(nn1C)CSCc1cc(n(C)n1)CSc1cc(c3ccccc3c1)OCCCc1c(C(=O)O)n(C)c3c-2c(Cl)ccc13 [AZD5991] + C1CN(CCC1(C(=O)N[C@@H](CCO)C2=CC=C(C=C2)Cl)N)C3=NC=NC4=C3C=CN4 [Capivasertib] (first compound max 1 µM, 7x7, partner max 3 µM) | 0.171 | 0.207 | 0.553 | 0.543 | 0.967 | 0.23 | 0.18 | 1 | 1 | 0.431 | 1 | 1 | 0.227 | 0.42 | 0.376 | 0.934 | 0.226 | 0.332 | 0.793 | 0.243 |
| NC1(C(=O)N[C@@H](CCO)c2ccc(Cl)cc2)CCN(c2ncnc3[nH]ccc23)CC1 [Capivasertib] + Cn1cnc2c(F)c(Nc3ccc(Br)cc3Cl)c(C(=O)NOCCO)cc21 [Selumetinib] (first compound max 10 µM, 7x7, partner max 10 µM) | 0.662 | 0.524 | 0.49 | 0.729 | 0.65 | 0.591 | 0.791 | 0.801 | 0.537 | 0.152 | 1 | 0.587 | 0.347 | 0.609 | 0.547 | 0.908 | 0.486 | 0.485 | 1 | 0.585 |
| CCN(CCO)CCCOc1ccc2c(Nc3cc(CC(=O)Nc4cccc(F)c4)[nH]n3)ncnc2c1 [AZD2811] + O=C(c1cc(Cc2n[nH]c(=O)c3ccccc23)ccc1F)N1CCN(C(=O)C2CC2)CC1 [Olaparib] (first compound max 1 µM, 7x7, partner max 10 µM) | 0.274 | 0.281 | 0.105 | 0.265 | 0.364 | 0.186 | 0.312 | 0.354 | 0.303 | 0.13 | 1 | 0.423 | 0.251 | 0.245 | 0.33 | 0.258 | 0.538 | 0.337 | 0.276 | 0.184 |
| CC1(C)CCC(CN2CCN(c3ccc(C(=O)NS(=O)(=O)c4ccc(NCC5CCOCC5)c([N+](=O)[O-])c4)c(Oc4cnc5[nH]ccc5c4)c3)CC2)=C(c2ccc(Cl)cc2)C1 [Venetoclax] + C=CCn1c(=O)c2cnc(Nc3ccc(N4CCN(C)CC4)cc3)nc2n1-c1cccc(C(C)(C)O)n1 [AZD1775] (first compound max 1 µM, partner max 1 µM) | 0.596 | 0.327 | 0.603 | 0.733 | 0.289 | 0.53 | 0.634 | 0.921 | 0.872 | 0.42 | 1 | 0.951 | 0.503 | 0.372 | 0.614 | 0.578 | 0.548 | 0.34 | 0.966 | 0.798 |
